Data taken from publication PMC8213057, “Targeting ALK2: An Open Science Approach to Developing Therapeutics for the Treatment of Diffuse Intrinsic Pontine Glioma” (Journal of Medicinal Chemistry, 2020).
Where “and” joins values, the source holds several entries; their conditions need not be identical. Equal entries are not always repeated.

What was measured:
[1] = target: PAK1 (Homo sapiens, UniProt Q13153); conditions: 1 μM; Run 1, Run 2
[2] = target: PEAK1 (Homo sapiens, UniProt Q9H792); conditions: 1 μM; Run 1, Run 2
[3] = target: MNK1 (Homo sapiens, UniProt Q9BUB5); assay: biochemical; conditions: read-out: % enzyme activity, 1 μM; Run 1, Run 2
Sequence of MNK1 (Q9BUB5 whole entry): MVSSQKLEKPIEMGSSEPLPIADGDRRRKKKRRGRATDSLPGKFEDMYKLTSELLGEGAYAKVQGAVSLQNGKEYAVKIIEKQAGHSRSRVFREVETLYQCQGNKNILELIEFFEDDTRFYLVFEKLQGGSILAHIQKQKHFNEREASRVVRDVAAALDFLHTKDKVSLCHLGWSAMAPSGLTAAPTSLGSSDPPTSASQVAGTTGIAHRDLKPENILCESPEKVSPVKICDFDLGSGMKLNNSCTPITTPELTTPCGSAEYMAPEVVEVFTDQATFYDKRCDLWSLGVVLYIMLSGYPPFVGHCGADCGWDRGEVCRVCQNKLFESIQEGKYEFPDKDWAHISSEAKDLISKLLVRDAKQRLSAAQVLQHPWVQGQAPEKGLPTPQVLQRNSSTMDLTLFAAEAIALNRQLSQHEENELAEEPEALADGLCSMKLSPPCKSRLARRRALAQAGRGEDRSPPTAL

[4] = target: WNK1 (Homo sapiens, UniProt Q9H4A3); assay: biochemical; conditions: read-out: % enzyme activity, 1 μM; Run 1, Run 2
Sequence of WNK1 (Q9H4A3 whole entry, species assumed): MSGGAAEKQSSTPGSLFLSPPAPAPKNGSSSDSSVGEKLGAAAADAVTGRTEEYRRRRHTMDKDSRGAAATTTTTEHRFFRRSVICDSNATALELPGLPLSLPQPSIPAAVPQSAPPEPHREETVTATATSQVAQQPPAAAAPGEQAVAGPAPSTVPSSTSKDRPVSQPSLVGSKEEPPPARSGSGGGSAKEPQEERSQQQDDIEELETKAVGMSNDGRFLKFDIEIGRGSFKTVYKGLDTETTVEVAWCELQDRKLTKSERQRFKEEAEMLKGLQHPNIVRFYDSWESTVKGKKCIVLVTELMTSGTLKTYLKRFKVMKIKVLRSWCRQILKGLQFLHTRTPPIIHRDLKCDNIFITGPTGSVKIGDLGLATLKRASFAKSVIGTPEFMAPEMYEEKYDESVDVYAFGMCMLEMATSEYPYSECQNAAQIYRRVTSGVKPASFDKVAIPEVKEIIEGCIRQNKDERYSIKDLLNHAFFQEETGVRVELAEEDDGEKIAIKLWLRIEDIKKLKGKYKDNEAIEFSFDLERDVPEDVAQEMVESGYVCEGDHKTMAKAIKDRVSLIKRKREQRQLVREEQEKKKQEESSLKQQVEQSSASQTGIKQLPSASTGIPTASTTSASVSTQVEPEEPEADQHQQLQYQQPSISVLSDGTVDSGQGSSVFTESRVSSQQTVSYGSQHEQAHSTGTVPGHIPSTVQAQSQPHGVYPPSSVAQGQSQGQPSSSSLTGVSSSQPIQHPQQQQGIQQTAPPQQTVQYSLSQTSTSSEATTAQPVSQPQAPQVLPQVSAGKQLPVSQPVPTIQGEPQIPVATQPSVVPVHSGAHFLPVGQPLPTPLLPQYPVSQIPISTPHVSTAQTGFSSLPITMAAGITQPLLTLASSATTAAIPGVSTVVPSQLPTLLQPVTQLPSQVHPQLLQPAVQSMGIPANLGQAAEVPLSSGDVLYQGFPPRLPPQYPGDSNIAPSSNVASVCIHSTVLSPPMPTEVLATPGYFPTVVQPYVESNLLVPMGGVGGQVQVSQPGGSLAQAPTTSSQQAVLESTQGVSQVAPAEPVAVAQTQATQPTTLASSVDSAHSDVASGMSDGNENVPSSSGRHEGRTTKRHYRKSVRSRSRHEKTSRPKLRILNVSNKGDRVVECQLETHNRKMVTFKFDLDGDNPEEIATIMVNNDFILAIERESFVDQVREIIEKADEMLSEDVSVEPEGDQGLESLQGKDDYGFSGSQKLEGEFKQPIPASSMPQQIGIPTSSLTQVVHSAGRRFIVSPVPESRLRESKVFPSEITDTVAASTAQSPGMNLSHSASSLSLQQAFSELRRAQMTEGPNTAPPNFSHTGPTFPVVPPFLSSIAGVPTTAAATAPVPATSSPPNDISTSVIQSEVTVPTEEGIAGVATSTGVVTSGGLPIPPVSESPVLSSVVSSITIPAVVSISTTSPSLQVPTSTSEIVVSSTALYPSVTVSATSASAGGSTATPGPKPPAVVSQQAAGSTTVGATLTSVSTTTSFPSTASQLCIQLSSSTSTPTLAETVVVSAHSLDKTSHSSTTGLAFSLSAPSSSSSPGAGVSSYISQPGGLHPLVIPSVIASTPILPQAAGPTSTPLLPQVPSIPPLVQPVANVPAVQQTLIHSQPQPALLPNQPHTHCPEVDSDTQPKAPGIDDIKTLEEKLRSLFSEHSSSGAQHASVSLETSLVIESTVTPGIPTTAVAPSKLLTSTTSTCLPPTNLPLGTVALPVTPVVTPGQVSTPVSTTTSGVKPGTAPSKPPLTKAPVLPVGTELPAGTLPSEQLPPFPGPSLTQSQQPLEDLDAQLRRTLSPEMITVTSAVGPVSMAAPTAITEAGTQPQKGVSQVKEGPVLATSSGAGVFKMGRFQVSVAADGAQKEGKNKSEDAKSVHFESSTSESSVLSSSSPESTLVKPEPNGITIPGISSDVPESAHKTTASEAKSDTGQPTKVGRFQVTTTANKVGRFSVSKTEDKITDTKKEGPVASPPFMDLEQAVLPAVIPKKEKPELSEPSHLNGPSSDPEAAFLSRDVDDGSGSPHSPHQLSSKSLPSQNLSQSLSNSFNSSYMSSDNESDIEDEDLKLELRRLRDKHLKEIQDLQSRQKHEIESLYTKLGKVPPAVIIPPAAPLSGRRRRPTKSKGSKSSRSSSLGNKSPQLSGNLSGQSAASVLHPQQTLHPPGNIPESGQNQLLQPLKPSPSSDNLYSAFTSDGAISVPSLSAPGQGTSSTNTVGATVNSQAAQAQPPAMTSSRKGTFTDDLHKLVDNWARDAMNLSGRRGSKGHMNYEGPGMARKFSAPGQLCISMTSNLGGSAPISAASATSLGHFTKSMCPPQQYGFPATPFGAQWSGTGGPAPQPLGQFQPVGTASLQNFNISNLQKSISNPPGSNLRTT

[5] = tested on: DYRK1/DYRK1A
[6] = tested on: MINK/MINK1
[7] = target: MLCK2/MYLK2 (Homo sapiens, UniProt Q9H1R3); conditions: 1 μM; Run 1, Run 2
Sequence of MLCK2/MYLK2 (Q9H1R3 whole entry): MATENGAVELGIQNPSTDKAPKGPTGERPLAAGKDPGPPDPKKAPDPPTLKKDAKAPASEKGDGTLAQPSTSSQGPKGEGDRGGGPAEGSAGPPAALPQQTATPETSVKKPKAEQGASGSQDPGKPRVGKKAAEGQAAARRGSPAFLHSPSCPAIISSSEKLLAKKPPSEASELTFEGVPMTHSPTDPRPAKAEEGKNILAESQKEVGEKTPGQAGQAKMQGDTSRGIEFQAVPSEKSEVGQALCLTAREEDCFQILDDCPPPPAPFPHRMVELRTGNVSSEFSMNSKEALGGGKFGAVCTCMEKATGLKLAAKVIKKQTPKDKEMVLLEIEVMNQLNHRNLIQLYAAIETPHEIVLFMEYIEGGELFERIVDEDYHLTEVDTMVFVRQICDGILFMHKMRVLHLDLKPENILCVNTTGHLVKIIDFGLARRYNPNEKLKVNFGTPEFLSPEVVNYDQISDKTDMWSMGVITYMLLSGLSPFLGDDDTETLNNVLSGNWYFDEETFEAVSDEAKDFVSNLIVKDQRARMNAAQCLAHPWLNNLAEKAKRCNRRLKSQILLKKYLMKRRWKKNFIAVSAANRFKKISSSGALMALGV

[8] = tested on: KHS/MAP4K5
[9] = target: CAMKK2 (Homo sapiens, UniProt Q96RR4); conditions: 1 μM; Run 1, Run 2
Sequence of CAMKK2 (Q96RR4 whole entry): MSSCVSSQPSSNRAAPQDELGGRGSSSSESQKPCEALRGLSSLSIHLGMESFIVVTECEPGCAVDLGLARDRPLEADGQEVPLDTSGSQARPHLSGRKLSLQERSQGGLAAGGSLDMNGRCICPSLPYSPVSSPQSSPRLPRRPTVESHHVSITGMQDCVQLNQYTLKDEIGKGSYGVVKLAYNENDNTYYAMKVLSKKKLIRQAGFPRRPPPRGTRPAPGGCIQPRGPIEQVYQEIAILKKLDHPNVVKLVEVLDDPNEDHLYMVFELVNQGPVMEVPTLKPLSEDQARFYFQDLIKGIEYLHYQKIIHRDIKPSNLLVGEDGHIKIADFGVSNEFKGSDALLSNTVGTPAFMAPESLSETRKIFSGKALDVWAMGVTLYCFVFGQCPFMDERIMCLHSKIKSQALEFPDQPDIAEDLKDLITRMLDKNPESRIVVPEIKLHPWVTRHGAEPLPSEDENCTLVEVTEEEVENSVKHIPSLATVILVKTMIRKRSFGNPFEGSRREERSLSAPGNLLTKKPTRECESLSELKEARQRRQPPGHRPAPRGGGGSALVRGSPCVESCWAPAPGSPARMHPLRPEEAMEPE

[10] = target: JNK1 (Homo sapiens, UniProt P45983); assay: biochemical; conditions: read-out: % enzyme activity, 1 μM; Run 1, Run 2
[11] = target: CHK2 (Homo sapiens, UniProt O96017); conditions: 1 μM; Run 1, Run 2
[12] = target: ROCK2 (Homo sapiens, UniProt O75116); conditions: 1 μM; Run 1, Run 2
[13] = target: T1, TBK1 (Homo sapiens, UniProt Q9UHD2); assay: biochemical; conditions: read-out: % enzyme activity, 1 μM; Run 1, Run 2
T1 sequence (Q9UHD2 1-729): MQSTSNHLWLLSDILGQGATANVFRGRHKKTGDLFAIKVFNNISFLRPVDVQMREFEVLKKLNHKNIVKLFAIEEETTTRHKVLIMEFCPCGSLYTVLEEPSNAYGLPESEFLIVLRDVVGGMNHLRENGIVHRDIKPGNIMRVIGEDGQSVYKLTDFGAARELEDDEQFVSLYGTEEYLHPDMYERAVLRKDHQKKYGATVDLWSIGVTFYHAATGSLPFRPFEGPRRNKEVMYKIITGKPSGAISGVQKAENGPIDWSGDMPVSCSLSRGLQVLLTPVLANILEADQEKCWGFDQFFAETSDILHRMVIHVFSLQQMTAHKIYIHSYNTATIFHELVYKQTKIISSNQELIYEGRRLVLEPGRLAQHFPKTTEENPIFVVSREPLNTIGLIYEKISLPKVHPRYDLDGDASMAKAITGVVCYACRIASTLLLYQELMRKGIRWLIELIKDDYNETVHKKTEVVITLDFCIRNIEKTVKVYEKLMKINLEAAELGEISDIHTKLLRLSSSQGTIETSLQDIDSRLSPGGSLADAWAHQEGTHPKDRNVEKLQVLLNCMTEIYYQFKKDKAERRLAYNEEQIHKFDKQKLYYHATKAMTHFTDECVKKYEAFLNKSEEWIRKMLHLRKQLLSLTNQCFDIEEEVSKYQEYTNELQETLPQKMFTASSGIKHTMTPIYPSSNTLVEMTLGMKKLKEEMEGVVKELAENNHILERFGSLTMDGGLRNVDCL

[14] = target: T2, DCAMKL2 (Homo sapiens, UniProt Q8N568); conditions: 1 μM; Run 1, Run 2
T2 sequence (Q8N568 1-766): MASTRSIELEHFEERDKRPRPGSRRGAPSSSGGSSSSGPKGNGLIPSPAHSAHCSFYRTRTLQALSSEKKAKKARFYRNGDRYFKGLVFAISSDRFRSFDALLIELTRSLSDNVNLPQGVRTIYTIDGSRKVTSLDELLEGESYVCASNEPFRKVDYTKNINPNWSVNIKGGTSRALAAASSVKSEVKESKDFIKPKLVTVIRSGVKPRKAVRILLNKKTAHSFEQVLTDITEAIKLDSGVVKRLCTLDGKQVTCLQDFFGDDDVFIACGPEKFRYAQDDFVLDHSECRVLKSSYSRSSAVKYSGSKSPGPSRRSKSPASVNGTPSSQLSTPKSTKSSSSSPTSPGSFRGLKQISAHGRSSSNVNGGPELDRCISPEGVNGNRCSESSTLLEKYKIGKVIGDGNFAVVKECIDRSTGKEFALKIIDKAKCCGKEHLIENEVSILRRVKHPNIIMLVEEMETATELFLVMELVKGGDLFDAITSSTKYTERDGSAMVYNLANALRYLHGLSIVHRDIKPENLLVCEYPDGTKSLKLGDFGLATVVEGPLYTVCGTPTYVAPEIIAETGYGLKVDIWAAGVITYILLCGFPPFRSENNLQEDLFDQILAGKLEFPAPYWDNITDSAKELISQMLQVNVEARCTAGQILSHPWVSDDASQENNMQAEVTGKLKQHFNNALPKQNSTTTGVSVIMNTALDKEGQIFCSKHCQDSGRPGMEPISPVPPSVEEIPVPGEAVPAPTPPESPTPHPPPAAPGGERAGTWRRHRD

[15] = target: RSK1 (Homo sapiens, UniProt Q15418); conditions: 1 μM; Run 1, Run 2
Sequence of RSK1 (Q15418 whole entry): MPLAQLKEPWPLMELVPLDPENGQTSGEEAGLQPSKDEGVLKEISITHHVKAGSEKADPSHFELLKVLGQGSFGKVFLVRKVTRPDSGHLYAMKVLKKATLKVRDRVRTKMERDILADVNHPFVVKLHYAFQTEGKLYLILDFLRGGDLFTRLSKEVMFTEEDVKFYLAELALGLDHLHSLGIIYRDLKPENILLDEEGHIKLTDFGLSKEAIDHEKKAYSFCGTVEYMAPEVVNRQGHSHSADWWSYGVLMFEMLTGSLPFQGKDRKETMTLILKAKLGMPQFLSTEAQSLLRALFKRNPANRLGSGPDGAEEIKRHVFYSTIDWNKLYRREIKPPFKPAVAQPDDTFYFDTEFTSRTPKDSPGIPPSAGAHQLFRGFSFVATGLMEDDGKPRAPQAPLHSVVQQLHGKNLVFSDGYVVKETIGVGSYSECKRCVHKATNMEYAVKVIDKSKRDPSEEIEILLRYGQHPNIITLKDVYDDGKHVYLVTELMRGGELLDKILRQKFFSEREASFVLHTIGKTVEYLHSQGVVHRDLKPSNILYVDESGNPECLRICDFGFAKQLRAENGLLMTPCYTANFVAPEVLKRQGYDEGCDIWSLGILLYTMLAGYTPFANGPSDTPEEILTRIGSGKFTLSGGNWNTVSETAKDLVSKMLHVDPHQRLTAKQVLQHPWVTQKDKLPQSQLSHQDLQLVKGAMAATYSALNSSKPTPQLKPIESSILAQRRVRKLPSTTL

[16] = target: NIM1 (Homo sapiens, UniProt Q8IY84); conditions: 1 μM; Run 1, Run 2

| Structure (SMILES) | % enzyme activity [1] | % enzyme activity [2] | remaining activity at 1 µM [3] | remaining activity at 1 µM [4] | % enzyme activity at 1 μM [5] | % enzyme activity at 1 μM [6] | % enzyme activity [7] | % enzyme activity at 1 μM [8] | % enzyme activity [9] | remaining activity at 1 µM [10] | % enzyme activity [11] | % enzyme activity [12] | remaining activity at 1 µM [13] | % enzyme activity [14] | % enzyme activity [15] | % enzyme activity [16] |
| --- | --- | --- | --- | --- | --- | --- | --- | --- | --- | --- | --- | --- | --- | --- | --- | --- |
| COc1cc(-c2cncc(-c3ccc(N4CCN(C)CC4)cc3)c2C)cc(F)c1C(N)=O [Compound 26a, 2-Fluoro-6-methoxy-4-(4-methyl-5-(4-(4-methylpiperazin-1-yl)phenyl)pyridin-3-yl)benzamide] | 102.29% | 97.59% | 51.1% | 108% | 43.3% and 43.1% | 24.1% and 22.6% | 66.59% | 39.7% and 39.3% | 70.52% | 90.6% | 99.41% | 115.13% | 93.6% | 62.07% | 97.99% | 95.18% |
| COc1cc(-c2cncc(-c3ccc(N4C[C@@H](C)N(C)[C@@H](C)C4)cc3)c2C)cc(F)c1C(N)=O [Compound 26c, 2-Fluoro-6-methoxy-4-(4-methyl-5-(4-((3R,5S)-3,4,5-trimethylpiperazin-1-yl)phenyl)pyridin-3-yl)benzamide] | 100.98% | 95.56% | 71.4% | 104% | 62.4% and 60% | 30.2% and 29.6% | 82.74% | 41.7% and 40.6% | 75.78% | 86.9% | 101.19% | 93.98% | 87.2% | 82.24% | 101.00% | 97.81% |
